Assay results: publication PMC7211202 (Investigational New Drugs, 2019)

Assay: Patient incidence of adverse events (CTCAE version 4.0)
Assay type: in vivo
Conditions: 240-mg dose expansion
Source text: Each patient was monitored for 21 days for the occurrence of dose-limiting toxicities (DLTs), defined as febrile neutropenia, neutropenic infection, grade 4 neutropenia lasting >7 days, grade ≥ 3 thrombocytopenia lasting >7 days (solid tumors only), grade 3 thrombocytopenia with grade ≥ 2 bleeding (solid tumors only), grade 3 or 4 thrombocytopenia with grade > 1 bleeding (multiple myeloma only), grade 4 thrombocytopenia (solid tumors only), or grade 4 thrombocytopenia lasting >14 days (multiple myeloma only), or as grade ≥ 3 nausea, vomiting, or diarrhea after support; grade 3 fatigue lasting >7 days; any other grade ≥ 3 adverse event (AE); grade ≥ 3 kidney injury (multiple myeloma only), or treatment-related AEs not returning to grade ≤ 1 (solid tumors only) per Common Terminology Criteria for Adverse Events (CTCAE), version 4.0. The MTD was defined as the maximum dose, at which the probability of a DLT was ≤25% in Part 1A and ≤ 33% in Parts 1B and 1C. Treatment continued until disease progression, intolerable toxicity, or withdrawal of consent.
AEs were recorded for all enrolled patients.

CC(C)[C@@H](CS(=O)(=O)C(C)C)N1C(=O)[C@@](C)(CC(=O)O)C[C@H](c2cccc(Cl)c2)[C@H]1c1ccc(Cl)cc1 [AMG 232]
8 (80) n (%): Treatment-related AE: Nausea (DDLPS (n = 10))
5 (63) n (%): Treatment-related AE: Decrease appetite (ER + PR+ Breast (n = 8))
4 (40) n (%): Patients with any treatment-emergent serious AE (DDLPS (n = 10)) | Treatment-related AE: Decrease appetite (DDLPS (n = 10)) | Patients with any treatment-related AE, Grade 3 (GBM (n = 10)) | Treatment-related AE: Nausea (GBM (n = 10)) | Patients with any treatment-emergent serious AE (Multiple Myeloma (n = 10)) | Treatment-related AE: Asthenia (Multiple Myeloma (n = 10)) | Treatment-related AE: Decrease appetite (Multiple Myeloma (n = 10)) | Treatment-related AE: Nausea (Multiple Myeloma (n = 10)) | Treatment-related AE: Vomiting (Multiple Myeloma (n = 10))
6 (60) n (%): Treatment-related AE: Diarrhea (DDLPS (n = 10)) | Treatment-related AE: Fatigue (GBM (n = 10)) | Patients with any treatment-related AE, Grade 3 (Multiple Myeloma (n = 10))
3 (38) n (%): Patients with any treatment-emergent serious AE (ER + PR+ Breast (n = 8)) | Treatment-related AE: Fatigue (ER + PR+ Breast (n = 8))
1 (13) n (%): Serious, treatment-related AE: Diarrhea (grade 3) (ER + PR+ Breast (n = 8)) | Serious, treatment-related AE: Nausea (grade 3) (ER + PR+ Breast (n = 8)) | Serious, treatment-related AE: Vomiting (grade 3) (ER + PR+ Breast (n = 8)) | Treatment-related AE: Asthenia (ER + PR+ Breast (n = 8))
4 (50) n (%): Patients with any treatment-related AE, Grade 3 (ER + PR+ Breast (n = 8))
2 (13) n (%): Patients with any treatment-related AE, Grade 4 (Other Solid (n = 16))
2 (25) n (%): Patients with any serious, treatment-related AE (ER + PR+ Breast (n = 8)) | Treatment-related AE: Dysgeusia (ER + PR+ Breast (n = 8))
6 (75) n (%): Treatment-related AE: Nausea (ER + PR+ Breast (n = 8)) | Treatment-related AE: Vomiting (ER + PR+ Breast (n = 8))
1 (25) n (%): Patients with any treatment-emergent serious AE (ER + PR–Breast (n = 4)) | Patients with any treatment-related AE, Grade 3 (ER + PR–Breast (n = 4)) | Treatment-related AE: Anemia (ER + PR–Breast (n = 4)) | Treatment-related AE: Asthenia (ER + PR–Breast (n = 4))
4 n: AE resulting in treatment discontinuation: vomiting
2 (20) n (%): Treatment-related AE: Vomiting (DDLPS (n = 10)) | Treatment-related AE: Neutropenia (GBM (n = 10)) | Treatment-related AE: Thrombocytopenia (GBM (n = 10)) | Patients with any serious, treatment-related AE (Multiple Myeloma (n = 10)) | Serious, treatment-related AE: Vomiting (grade 3) (Multiple Myeloma (n = 10)) | Treatment-related AE: Dysgeusia (Multiple Myeloma (n = 10)) | Treatment-related AE: Fatigue (Multiple Myeloma (n = 10))
7 (88) n (%): Treatment-related AE: Diarrhea (ER + PR+ Breast (n = 8))
1 (10) n (%): Treatment-related AE: Asthenia (DDLPS (n = 10)) | Treatment-related AE: Dysgeusia (DDLPS (n = 10)) | Treatment-related AE: Thrombocytopenia (DDLPS (n = 10)) | Patients with any serious, treatment-related AE (GBM (n = 10)) | Serious, treatment-related AE: Hyperamylasemia (grade 3) (GBM (n = 10)) | Serious, treatment-related AE: Hyperlipasemia (grade 3) (GBM (n = 10)) | Treatment-related AE: Decrease appetite (GBM (n = 10)) | Treatment-related AE: Dysgeusia (GBM (n = 10)) | Treatment-related AE: Anemia (Multiple Myeloma (n = 10))
5 (31) n (%): Patients with any treatment-emergent serious AE (Other Solid (n = 16))
16 (100) n (%): Patients with any treatment-emergent AE (Other Solid (n = 16))
9 (90) n (%): Patients with any treatment-emergent AE (DDLPS (n = 10)) | Patients with any treatment-related AE (DDLPS (n = 10))
2 n: AE resulting in treatment discontinuation: fatigue
3 (30) n (%): Treatment-related AE: Vomiting (GBM (n = 10)) | Patients with any treatment-related AE, Grade 4 (Multiple Myeloma (n = 10)) | Treatment-related AE: Neutropenia (Multiple Myeloma (n = 10)) | Treatment-related AE: Thrombocytopenia (Multiple Myeloma (n = 10))
4 (100) n (%): Patients with any treatment-emergent AE (ER + PR–Breast (n = 4)) | Patients with any treatment-related AE (ER + PR–Breast (n = 4)) | Treatment-related AE: Diarrhea (ER + PR–Breast (n = 4))
5 (50) n (%): Treatment-related AE: Diarrhea (GBM (n = 10))
13 (19%) n (%): Patients with AEs resulting in treatment discontinuation
7 (70) n (%): Treatment-related AE: Fatigue (DDLPS (n = 10)) | Patients with any treatment-emergent serious AE (GBM (n = 10)) | Treatment-related AE: Diarrhea (Multiple Myeloma (n = 10))
2 (50) n (%): Treatment-related AE: Vomiting (ER + PR–Breast (n = 4))
10 (100) n (%): Patients with any treatment-emergent AE (GBM (n = 10)) | Patients with any treatment-related AE (GBM (n = 10)) | Patients with any treatment-emergent AE (Multiple Myeloma (n = 10)) | Patients with any treatment-related AE (Multiple Myeloma (n = 10))
8 (100) n (%): Patients with any treatment-emergent AE (ER + PR+ Breast (n = 8)) | Patients with any treatment-related AE (ER + PR+ Breast (n = 8))
14 (88) n (%): Patients with any treatment-related AE (Other Solid (n = 16))
3 (75) n (%): Treatment-related AE: Decrease appetite (ER + PR–Breast (n = 4)) | Treatment-related AE: Nausea (ER + PR–Breast (n = 4))
0 n (%): Patients with any serious, treatment-related AE (DDLPS (n = 10)) | Patients with any treatment-related AE, Grade 3 (DDLPS (n = 10)) | Patients with any treatment-related AE, Grade 4 (DDLPS (n = 10)) | Patients with any treatment-related AE, Grade 5 (DDLPS (n = 10)) | Serious, treatment-related AE: Dehydration (grade 3) (DDLPS (n = 10)) | Serious, treatment-related AE: Diarrhea (grade 3) (DDLPS (n = 10)) | Serious, treatment-related AE: Hyperamylasemia (grade 3) (DDLPS (n = 10)) | Serious, treatment-related AE: Hyperlipasemia (grade 3) (DDLPS (n = 10)) | Serious, treatment-related AE: Nausea (grade 3) (DDLPS (n = 10)) | Serious, treatment-related AE: Pulmonary embolism (grade 3) (DDLPS (n = 10)) | Serious, treatment-related AE: Vomiting (grade 3) (DDLPS (n = 10)) | Treatment-related AE: Anemia (DDLPS (n = 10)) | Treatment-related AE: Neutropenia (DDLPS (n = 10)) | Patients with any treatment-related AE, Grade 4 (ER + PR+ Breast (n = 8)) | Patients with any treatment-related AE, Grade 5 (ER + PR+ Breast (n = 8)) | Serious, treatment-related AE: Dehydration (grade 3) (ER + PR+ Breast (n = 8)) | Serious, treatment-related AE: Hyperamylasemia (grade 3) (ER + PR+ Breast (n = 8)) | Serious, treatment-related AE: Hyperlipasemia (grade 3) (ER + PR+ Breast (n = 8)) | Serious, treatment-related AE: Pulmonary embolism (grade 3) (ER + PR+ Breast (n = 8)) | Treatment-related AE: Anemia (ER + PR+ Breast (n = 8)) | Treatment-related AE: Neutropenia (ER + PR+ Breast (n = 8)) | Treatment-related AE: Thrombocytopenia (ER + PR+ Breast (n = 8)) | Patients with any serious, treatment-related AE (ER + PR–Breast (n = 4)) | Patients with any treatment-related AE, Grade 4 (ER + PR–Breast (n = 4)) | Patients with any treatment-related AE, Grade 5 (ER + PR–Breast (n = 4)) | Serious, treatment-related AE: Dehydration (grade 3) (ER + PR–Breast (n = 4)) | Serious, treatment-related AE: Diarrhea (grade 3) (ER + PR–Breast (n = 4)) | Serious, treatment-related AE: Hyperamylasemia (grade 3) (ER + PR–Breast (n = 4)) | Serious, treatment-related AE: Hyperlipasemia (grade 3) (ER + PR–Breast (n = 4)) | Serious, treatment-related AE: Nausea (grade 3) (ER + PR–Breast (n = 4)) | Serious, treatment-related AE: Pulmonary embolism (grade 3) (ER + PR–Breast (n = 4)) | Serious, treatment-related AE: Vomiting (grade 3) (ER + PR–Breast (n = 4)) | Treatment-related AE: Dysgeusia (ER + PR–Breast (n = 4)) | Treatment-related AE: Fatigue (ER + PR–Breast (n = 4)) | Treatment-related AE: Neutropenia (ER + PR–Breast (n = 4)) | Treatment-related AE: Thrombocytopenia (ER + PR–Breast (n = 4)) | Patients with any treatment-related AE, Grade 4 (GBM (n = 10)) | Patients with any treatment-related AE, Grade 5 (GBM (n = 10)) | Serious, treatment-related AE: Dehydration (grade 3) (GBM (n = 10)) | Serious, treatment-related AE: Diarrhea (grade 3) (GBM (n = 10)) | Serious, treatment-related AE: Nausea (grade 3) (GBM (n = 10)) | Serious, treatment-related AE: Pulmonary embolism (grade 3) (GBM (n = 10)) | Serious, treatment-related AE: Vomiting (grade 3) (GBM (n = 10)) | Treatment-related AE: Anemia (GBM (n = 10)) | Treatment-related AE: Asthenia (GBM (n = 10)) | Patients with any treatment-related AE, Grade 5 (Multiple Myeloma (n = 10)) | Serious, treatment-related AE: Dehydration (grade 3) (Multiple Myeloma (n = 10)) | Serious, treatment-related AE: Diarrhea (grade 3) (Multiple Myeloma (n = 10)) | Serious, treatment-related AE: Hyperamylasemia (grade 3) (Multiple Myeloma (n = 10)) | Serious, treatment-related AE: Hyperlipasemia (grade 3) (Multiple Myeloma (n = 10)) | Serious, treatment-related AE: Nausea (grade 3) (Multiple Myeloma (n = 10)) | Serious, treatment-related AE: Pulmonary embolism (grade 3) (Multiple Myeloma (n = 10)) | Patients with any serious, treatment-related AE (Other Solid (n = 16)) | Patients with any treatment-related AE, Grade 5 (Other Solid (n = 16)) | Serious, treatment-related AE: Dehydration (grade 3) (Other Solid (n = 16)) | Serious, treatment-related AE: Diarrhea (grade 3) (Other Solid (n = 16)) | Serious, treatment-related AE: Hyperamylasemia (grade 3) (Other Solid (n = 16))
4 (25) n (%): Patients with any treatment-related AE, Grade 3 (Other Solid (n = 16))
